# Measurements as given in patent publication US20080213817A1, “Enhancement of Th2-Dependent and Inflammatory Response” (priority 2004, published 2008).
# Assays:
# Format in all cases: cell-based, mice
# c-Jun and JunB = assay: Immunoblotting of Jun protein levels in activated T cells
# Protocol: (§1) JNK1 was immunoprecipitated from 30 μg cell lysate with anti-JNK1 antibody (333, PharMingen) and its kinase activity measured by an immunecomplex kinase assay with GST-c-Jun(1-79) as a substrate (Xia et al. (2000) Proc Natl Acad Sci USA 97, 5243-5248). c-Jun phosphorylation was quantitated using a PhosphoImager (Bio-Rad) and gel loading was normalized by immunoblotting with a monoclonal antibody against JNK1/2 (666, PharMingen). ERK activation was examined by immunoblotting of gel separated whole cell extracts (100 μg) with an antibody specific for phospho-ERK (Cell Signaling). Polyclonal antibody against MEKK1 was prepared as described (Gallagher et al. (2002) J Biol Chem 277, 45785-45792). Antibodies against c-Jun, JunB, GATA3, c-Maf, NFATc1, NFATc2, p16, and p65 (RelA) were all from Santa Cruz Biotechnology. Polyclonal antibody against Itch was prepared as described (Qiu et al. (2000) J Biol Chem 275, 35734-35737). The levels of various proteins were quantitated by BioRad Quantity One software.
# (§2) The levels of Itch and actin were examined was measured by immunoblotting. […] Cells were chased with nonradioactive amino acids for the indicated times, at which they were lysed and Itch expression levels were determined by radioimmunoprecipitation. The levels of [^35S]-labeled Itch were quantitated using a PhosphoImager. […] JNK activity was measured by an immunecomplex kinase assay. Phosphorylated c-Jun was detected by autoradiography and quantitated using a PhosphoImager. […]
# Inactivation of MEKK1 or JNK Slows Down JunB and c-Jun Turnover • A. Thymocytes and CD4^+ T cells from WT and Mekk1^ΔKD were stimulated with anti-CD3+anti-CD28 for 24 hrs. Cell extracts were prepared and the levels of various transcription factors were measured by immunoblotting. The relative levels of the different proteins determined by densitometry are indicated. […] The mRNA levels of Jun family members and c-Fos were measured by RNase protection. […] Cell lysates were prepared and immunoprecipitated with various antibodies as indicated, separated by SDS-PAGE and analyzed by autoradiography. […]
# Itch = assay: Immunoblotting of Itch level in activated thymocytes; conditions: activated WT thymocytes
# Protocol: as §1, with “Polyclonal antibody against Itch was prepared as described (Qiu et al. (2000) J Biol Chem 275, 35734-35737).” left out
# as §2
# WT thymocytes = assay: Thymocyte proliferation, [3H] thymidine incorporation; conditions: WT thymocytes
# Protocol: For proliferation assays, purified thymocytes or CD4^+ or CD8^+ splenic T cells (2×10^5 cells/well) were cultured in round bottom 96-well plates (Costar) precoated with anti-CD3 antibody (BD Pharmingen) in the absence or presence of soluble anti-CD28 antibody (BD Pharmingen). After 3 days, cultures were pulsed for 6 hrs with 1 μCi [^3H] thymidine (New England Nuclear) per well and cells were harvested. [^3H] thymidine incorporation was measured by scintillation counting. When indicated, either recombinant IL-4 or neutralizing anti-IL-4 antibody (R&D Systems) were added prior to [^3H] thymidine labeling.
# For proliferation assays, purified thymocytes (2×10^5 cells/well) were cultured in round bottom 96-well plates (Costar) precoated with anti-CD3 antibody (BD Pharmingen) in the absence or presence of soluble anti-CD28 antibody (BD Pharmingen). […] [^3H] thymidine incorporation was measured by scintillation counting. […]
# The effect of the Mekk1^KD mutation on activation of JNK and other MAPKs in response to TCR and CD28 engagement was investigated. • A. WT and Mekk1^KD thymocytes were incubated with anti-CD3 (10 μg/ml) and anti-CD28 (1 μg/ml). At the indicated times, JNK activity was measured by an immunecomplex kinase assay using GST-c-Jun(1-79) as the substrate. Phosphorylated c-Jun was detected by autoradiography and quantitated using a PhosphorImager. […] Cell proliferation was measured as above. […]
Compound,"c-Jun and JunB expression (in words) (c-Jun and JunB; WT CD4^+ T cells stimulated with anti-CD3 and anti-CD28, 24 hours)",effect on c-Jun and JunB expression (in words) (c-Jun and JunB; activated WT thymocytes),effect on Itch expression (in words) (Itch),effect on [3H] thymidine incorporation (in words) (WT thymocytes; anti-CD3+anti-CD28),"increase in c-Jun and JunB expression (c-Jun and JunB; activated WT thymocytes (anti-CD3+anti-CD28), 24 hrs, SP600125 0.5 μM, JNKI-1 25 μM) [fold]","decrease in Itch expression (Itch; 24 hrs, 0.5 μM) [fold]","increase in [3H] thymidine incorporation (WT thymocytes; different concentrations of anti-CD3+anti-CD28, increasing amounts of inhibitor, 72 hrs)"
Oc1ccc(-c2nc(-c3ccncc3)c(-c3ccc(F)cc3)[nH]2)cc1 [SB202190],No such effects,Negligible such effects,Negligible such effects,did not produce such an effect,,,
Oc1c2ccccc2c2c3c(cccc13)N=N2 [SP600125],,,,,4,2,at least 2 fold
